Data: patent publication US10045983B2, “Heteroaryl pyridone and aza-pyrodine compounds” (Genentech, Inc., priority 2011, dated 2018)
Where two headings read alike, the source gives them in different places.

Test: CD69 Whole Blood Assay (CD69 Hu Blood FACS)
Type: cell-based, human
Settings: Lymphocyte
Excerpt: A CD69 Whole Blood Assay can be conducted on Formula I compounds to determine the ability of compounds to inhibit the production of CD69 by B lymphocytes in human whole blood activated by crosslinking surface IgM with goat F(ab′)2 anti-human IgM (Example 907). CD69 is a type II C-type lectin involved in lymphocyte migration and cytokine secretion. CD69 expression represents one of the earliest available indicators of leukocyte activation and its rapid induction occurs through transcriptional activation (Vazquez et al (2009) Jour. of Immunology Published Oct. 19, 2009, doi:10.4049/jimmunol.0900839). Concentration-dependent inhibition of antigen receptor stimulation by selective Btk inhibitors induces cell surface expression of the lymphocyte activation marker CD69 (Honigberg et al (2010) Proc. Natl. Acad. Sci. 107(29):13075-13080). Thus, CD69 inhibition by selective Btk inhibitors may be correlated with therapeutic efficacy of certain B-cell disorders.

[1] = human whole blood, anti-IgM activated B lymphocytes, FACS, IC70, Table 1, read-out: CD69 Hu Blood FACS IC70

## CN1CCn2nc(Nc3cc(-c4ccnc(N5CCn6c(cc7c6CC(C)(C)C7)C5=O)c4CO)cn(C)c3=O)cc2C1 [Example 141, 2-[3′-Hydroxymethyl-1-methyl-5-(5-methyl-4,5,6,7-tetrahydro-pyrazolo[1,5-a]pyrazin-2-ylamino)-6-oxo-1,6-dihydro-[3,4′]bipyridinyl-2′-yl]-7,7-dimethyl-3,4,7,8-tetrahydro-2H,6H-cyclopenta[4,5]pyrrolo[1,2-a]pyrazin-1-one]
[1]
  IC70: 0.0266 µM

## Cn1cc(-c2ccnc(N3CCn4c(cc5c4CCCC5)C3=O)c2CO)cc(Nc2ccncn2)c1=O [Example 142, 2-[3′-Hydroxymethyl-1-methyl-6-oxo-5-(pyrimidin-4-ylamino)-1,6-dihydro-[3,4′]bipyridinyl-2′-yl]-3,4,6,7,8,9-hexahydro-2H-pyrazino[1,2-a]indol-1-one]
[1]
  IC70: 2.1 µM

## Cn1cc(-c2ccnc(N3CCc4c(sc5c4CC(C)(C)C5)C3=O)c2CO)cc(Nc2ccncn2)c1=O [Example 143, 6-[3′-Hydroxymethyl-1-methyl-6-oxo-5-(pyrimidin-4-ylamino)-1,6-dihydro-[3,4′]bipyridinyl-2′-yl]-2,2-dimethyl-2,3,5,6-tetrahydro-1H,4H-8-thia-6-aza-cyclopenta[a]inden-7-one]
[1]
  IC70: 0.0309 µM

## Cn1cc(-c2ccnc(N3CCn4c(cc5c4CC(C)(C)C5)C3=O)c2CO)cc(Nc2ccncn2)c1=O [Example 144, 2-[3′-Hydroxymethyl-1-methyl-6-oxo-5-(pyrimidin-4-ylamino)-1,6-dihydro-[3,4′]bipyridinyl-2′-yl]-7,7-dimethyl-3,4,7,8-tetrahydro-2H,6H-cyclopenta-[4,5]pyrrolo[1,2-a]pyrazin-1-one]
[1]
  IC70: 0.106 µM

## C[C@H]1CN(C2COC2)CCN1c1ccc(Nc2cc(-c3ccnc(N4CCc5c(sc6c5CC(C)(C)C6)C4=O)c3CO)cn(C)c2=O)nc1 [Example 145, 6-{3′-Hydroxymethyl-1-methyl-5-[5-((S)-2-methyl-4-oxetan-3-yl-piperazin-1-yl)-pyridin-2-ylamino]-6-oxo-1,6-dihydro-[3,4′]bipyridinyl-2′-yl}-2,2-dimethyl-2,3,5,6-tetrahydro-1H,4H-8-thia-6-aza-cyclopenta[a]inden-7-one]
[1]
  IC70: 0.0147 µM

## Cn1cc(-c2ccnc(N3CCn4c5c(c(F)c4C3=O)CCCC5)c2CO)cc(Nc2ccncn2)c1=O [Example 146, 10-Fluoro-2-(3-(hydroxymethyl)-4-(1-methyl-6-oxo-5-(pyrimidin-4-ylamino)-1,6-dihydropyridin-3-yl)pyridin-2-yl)-3,4,6,7,8,9-hexahydropyrazino[1,2-a]indol-1(2H)-one]
[1]
  IC70: 0.0856 µM

## CN1CCn2nc(Nc3cc(-c4ccnc(N5CCc6c(cc7n6CCCC7)C5=O)c4CO)cn(C)c3=O)cc2C1 [Example 147, 2-(3-(Hydroxymethyl)-4-(1-methyl-5-(5-methyl-4,5,6,7-tetrahydro-pyrazolo[1,5-a]pyrazin-2-ylamino)-6-oxo-1,6-dihydropyridin-3-yl)pyridin-2-yl)-3,4,6,7,8,9-hexahydropyrido[3,4-b]indolizin-1(2H)-one]
[1]
  IC70: 0.32 µM

## C[C@H]1CN(C2COC2)CCN1c1ccc(Nc2cc(-c3ccnc(N4CCn5c(cc6c5CCCC6)C4=O)c3C3(O)COC3)cn(C)c2=O)nc1 [Example 148, (S)-2-(3-(3-Hydroxyoxetan-3-yl)-4-(1-methyl-5-(5-(2-methyl-4-(oxetan-3-yl)piperazin-1-yl)pyridin-2-ylamino)-6-oxo-1,6-dihydropyridin-3-yl)pyridin-2-yl)-3,4,6,7,8,9-hexahydropyrazino[1,2-a]indol-1(2H)-one]
[1]
  IC70: 5 µM

## C[C@H]1CN(C2COC2)CCN1c1ccc(Nc2cc(-c3ccnc(N4CCc5c(cc6n5CCCC6)C4=O)c3CO)cn(C)c2=O)nc1 [Example 149, 2-{3′-Hydroxymethyl-1-methyl-5-[5-((S)-2-methyl-4-oxetan-3-yl-piperazin-1-yl)-pyridin-2-ylamino]-6-oxo-1,6-dihydro-[3,4′]bipyridinyl-2′-yl}-2,3,5,6,7,8-hexahydro-4H-2,4b-diaza-fluoren-1-one]
[1]
  IC70: 0.0454 µM

## CN1CCn2nc(Nc3cc(-c4cncc(N5CCn6c(cc7c6CC(C)(C)C7)C5=O)c4CO)cn(C)c3=O)cc2C1 [Example 150, 2-[4-Hydroxymethyl-1′-methyl-5′-(5-methyl-4,5,6,7-tetrahydro-pyrazolo[1,5-a]pyrazin-2-ylamino)-6′-oxo-1′,6′-dihydro-[3,3′]bipyridinyl-5-yl]-7,7-dimethyl-3,4,7,8-tetrahydro-2H,6H-cyclopenta[4,5]pyrrolo[1,2-a]pyrazin-1-one]
[1]
  IC70: 0.0316 µM

## C[C@@H]1CN(C2COC2)CCN1c1ccc(Nc2cc(-c3ccnc(-n4ccn5c6c(cc5c4=O)CCCC6)c3CO)cn(C)c2=O)nc1 [Example 151, 2-{3′-Hydroxymethyl-1-methyl-5-[5-((R)-2-methyl-4-oxetan-3-yl-piperazin-1-yl)-pyridin-2-ylamino]-6-oxo-1,6-dihydro-[3,4′]bipyridinyl-2′-yl}-6,7,8,9-tetrahydro-2H-pyrazino[1,2-a]indol-1-one]
[1]
  IC70: 0.0455 µM

## Cn1cc(-c2ccnc(N3CCn4c(cc5c4CCCC5)C3=O)c2CO)cc(Nc2ccc(N3[C@@H]4CC[C@H]3CN(C3COC3)C4)cn2)c1=O [Example 152, 2-{3′-Hydroxymethyl-1-methyl-5-[5-((1 S,5R)-3-oxetan-3-yl-3,8-diaza-bicyclo[3.2.1]oct-8-yl)-pyridin-2-ylamino]-6-oxo-1,6-dihydro-[3,4′]bipyridinyl-2′-yl}-3,4,6,7,8,9-hexahydro-2H-pyrazino[1,2-a]indol-1-one]
Homo sapiens, read-out: CD69 Hu Blood FACS IC70 (μM)
  IC70: 0.188 µM

## C[C@@H]1CN(C2COC2)CCN1c1ccc(Nc2cc(-c3ccnc(N4CCn5c(cc6c5CC(C)(C)C6)C4=O)c3CO)cn(C)c2=O)nc1 [Example 153, 2-{3′-Hydroxymethyl-1-methyl-5-[5-((R)-2-methyl-4-oxetan-3-yl-piperazin-1-yl)-pyridin-2-ylamino]-6-oxo-1,6-dihydro-[3,4′]bipyridinyl-2′-yl}-7,7-dimethyl-3,4,7,8-tetrahydro-2H,6H-cyclopenta[4,5]pyrrolo[1,2-a]pyrazin-1-one]
[1]
  IC70: 0.0238 µM

## C[C@@H]1CN(C2COC2)CCN1c1ccc(Nc2cc(-c3ccnc(-n4ncc5c6c(sc5c4=O)CCCC6)c3CO)cn(C)c2=O)nc1 [Example 154, 3-{3′-Hydroxymethyl-1-methyl-5-[5-((R)-2-methyl-4-oxetan-3-yl-piperazin-1-yl)-pyridin-2-ylamino]-6-oxo-1,6-dihydro-[3,4′]bipyridinyl-2′-yl}-6,7,8,9-tetrahydro-3H-benzo[4,5]thieno[2,3-d]pyridazin-4-one]
[1]
  IC70: 0.0374 µM

## C[C@@H]1CN(c2ccc(Nc3cc(-c4ccnc(N5CCc6c(cc7n6CCCC7)C5=O)c4CO)cn(C)c3=O)nc2)[C@@H](C)CN1C1COC1 [Example 155, 2-{5-[5-((2S,5R)-2,5-Dimethyl-4-oxetan-3-yl-piperazin-1-yl)-pyridin-2-ylamino]-3′-hydroxymethyl-1-methyl-6-oxo-1,6-dihydro-[3,4′]bipyridinyl-2′-yl}-2,3,5,6,7,8-hexahydro-4H-2,4b-diaza-fluoren-1-one]
[1]
  IC70: 0.0454 µM

## C[C@@H]1CN(c2ccc(Nc3cc(-c4ccnc(N5CCn6c7c(c(F)c6C5=O)CCCC7)c4CO)cn(C)c3=O)nc2)[C@@H](C)CN1C1COC1 [Example 156, 2-{5-[5-((2S,5R)-2,5-Dimethyl-4-oxetan-3-yl-piperazin-1-yl)-pyridin-2-ylamino]-3′-hydroxymethyl-1-methyl-6-oxo-1,6-dihydro-[3,4′]bipyridinyl-2′-yl}-10-fluoro-3,4,6,7,8,9-hexahydro-2H-pyrazino[1,2-a]indol-1-one]
[1]
  IC70: 0.0145 µM

## C[C@@H]1CN(c2ccc(Nc3cc(-c4cncc(N5CCn6c(cc7c6CCCC7)C5=O)c4CO)cn(C)c3=O)nc2)[C@@H](C)CN1C1COC1 [Example 157]
[1]
  IC70: 0.0298 µM

## C[C@@H]1CN(c2ccc(Nc3cc(-c4ccnc(N5CCn6c(cc7c6CC(C)(C)C7)C5=O)c4CO)cn(C)c3=O)nc2)[C@@H](C)CN1C1COC1 [Example 158, 2-{5-[5-((2S,5R)-2,5-Dimethyl-4-oxetan-3-yl-piperazin-1-yl)-pyridin-2-ylamino]-3′-hydroxymethyl-1-methyl-6-oxo-1,6-dihydro-[3,4′]bipyridinyl-2′-yl}-7,7-dimethyl-3,4,7,8-tetrahydro-2H,6H-cyclopenta[4,5]pyrrolo[1,2-a]pyrazin-1-one]
[1]
  IC70: 0.02 µM

## C[C@@H]1CN(c2ccc(Nc3cc(-c4ccnc(-n5ncc6c7c(sc6c5=O)CCCC7)c4CO)cn(C)c3=O)nc2)[C@@H](C)CN1C1COC1 [Example 159, 3-{5-[5-((2S, 5R)-2,5-Dimethyl-4-oxetan-3-yl-piperazin-1-yl)-pyridin-2-ylamino]-3′-hydroxymethyl-1-methyl-6-oxo-1,6-dihydro-[3,4′]bipyridinyl-2′-yl}-6,7,8,9-tetrahydro-3H-benzo[4,5]thieno[2,3-d]pyridazin-4-one]
[1]
  IC70: 0.082 µM

## C[C@@H]1CN(c2ccc(Nc3cc(-c4ccnc(-n5ccn6c7c(cc6c5=O)CCCC7)c4CO)cn(C)c3=O)nc2)[C@@H](C)CN1C1COC1 [Example 160, 2-{5-[5-((2S, 5R)-2,5-Dimethyl-4-oxetan-3-yl-piperazin-1-yl)-pyridin-2-ylamino]-3′-hydroxymethyl-1-methyl-6-oxo-1,6-dihydro-[3,4′]bipyridinyl-2′-yl}-6,7,8,9-tetrahydro-2H-pyrazino[1,2-a]indol-1-one]
[1]
  IC70: 0.0547 µM

## CC[C@H]1CN(C2COC2)CCN1c1ccc(Nc2cc(-c3ccnc(N4CCc5c(cc6n5CCCC6)C4=O)c3CO)cn(C)c2=O)nc1 [Example 161, 2-{5-[5-((S)-2-Ethyl-4-oxetan-3-yl-piperazin-1-yl)-pyridin-2-ylamino]-3′-hydroxymethyl-1-methyl-6-oxo-1,6-dihydro-[3,4′]bipyridinyl-2′-yl}-2,3,5,6,7,8-hexahydro-4H-2,4b-diaza-fluoren-1-one]
[1]
  IC70: 0.064 µM
